Measured values taken from patent US20120269762A1, “CAUSAL THERAPY OF DISEASES OR CONDITIONS ASSOCIATED WITH CNS OR PNS DEMYELINATION” (UNIVERSITY COLLEGE DUBLIN, NATIONAL UNIVERSITY OF IRELAND, …, priority 2009, published 2012).

Legend:
[1] = system: C57BL/6 mice on cuprizone diet; experiment: Cuprizone animal model of demyelination (luxol fast blue myelin staining, corpus callosum); type: in vivo; conditions: 30 mg/kg/day i.p. from 5 days before return to normal diet; 1 day time-point after 6 weeks cuprizone (0.2% wt/wt) diet
Method: Demyelination was induced by feeding 12-14 week old C57B1/6 mice a diet containing 0.2% cuprizone (bis-cyclohexanone oxaldihydrazone) mixed into food pellets. This diet was maintained ad libitum for 6 weeks before returning animals to normal chow (T=0) in order to study remyelination. Control animals received control chow throughout the study. Commencing from 5 days before the return to control chow (T=−5 days), animals received daily intra-peritoneal injections of 30 mg/kg nefiracetam or vehicle only until the end of the study. At different time points, (T=1 day, T=3 days, T=7 days) animals were sacrificed, brains were snap frozen in Optimal Cutting Temperature (OTC) Compound and stored. Coronal frozen sections, 20 μm thick, were cut using a cryostat at approximately −1.8 mm from bregma. Sections were fixed in 70% ethanol, defatted in 50% chloroform/50% ethanol, rehydrated, and then myelin was stained with luxol fast blue. The degree of myelination in the corpus callosum was assessed based on the intensity of the luxol fast blue staining

[2] = system: organotypic cultures of rat hippocampus; experiment: LPC-induced demyelination in hippocampal organotypic slice culture (MBP immunofluorescence); type: cell-based, Wistar rats; conditions: 10 μm drug, 24 h post-LPC treatment (250 μg/ml LPC for 18 hours); compared to control
Method: Slices were maintained in normal organotypic medium for 10 days, at which point demyelination was induced by exposing the cultures to 250 μg/ml lysophosphatidylcholine (LPC) in the medium for 18 hours. After the LPC exposure, slices were returned to LPC free medium containing either 10 μm nefiracetam, 10 μm piracetam, 10 μm levetiracetam, 10 μm aniracetam, or no drug. […] Protoc. […] Labelled MBP in the cultures was imaged by confocal microscopy, and the degree of myelination was compared to time matched cultures that had not undergone LPC exposure.

[3] = clinical studies, oral administration; cited from earlier work
[4] = system: Lewis rats susceptible to develop experimental autoimmune encephalomyelitis (EAE); experiment: EAE animal model of multiple Sclerosis (clinical score); type: in vivo; conditions: versus saline-treated controls, n=5

Row | SMILES | myelin levels (myelin density) in the corpus callosum [1] | MBP expression (percent of field of view positive for MBP) [2] | tolerability in humans [3] | clinical score (magnitude and timing of clinical symptoms) ([4]; increasing doses (9, 15 and 30 mg/kg) i.p. daily from onset of clinical symptoms) | clinical score (magnitude and timing of clinical symptoms) ([4]; treated from day of inoculation with MBP)
1 | Cc1cccc(C)c1NC(=O)CN1CCCC1=O [Nefiracetam, N-(2,6-dimethylphenyl)-2-(2-oxo-1-pyrrolidinyl)acetamide] | completely restored myelin levels to normal | restored MBP expression to control levels or above | well tolerated | No significant differences were seen | No significant difference was seen
2 | COc1ccc(C(=O)N2CCCC2=O)cc1 [aniracetam] | – | restored MBP expression to control levels or above | – | – | –
3 | CC[C@H](C(N)=O)N1CCCC1=O [levetiracetam] | – | restored MBP expression to control levels or above | – | – | –
4 | NC(=O)CN1CCCC1=O [piracetam] | – | restored MBP expression to control levels or above | – | – | –
